{"source": "patent US6680327B2", "about": "“Crystalline form VII of cabergoline” (Pharmacia Italia SpA, priority 2000, dated 2004)", "key": {"[1]": {"tested_on": "prolactine", "experiment": "inhibitory effect with regard prolactine", "settings": "statement in words, no test described"}, "[2]": {"experiment": "thermodynamic stability of cabergoline polymorphs", "format": "physicochemical", "procedure": "It can be readily prepared by slurry of form I or mixture of form I and VII in a solvent at a temperature over 30° C. The importance of cabergoline form VII rests primarily (but not exclusively) in thermodynamic stability.\nThe present invention also provides a process for producing crystalline cabergoline Form VII by subjecting crystals of form I or a mixture of crystals form I and VII to a slurry procedure at a temperature over 30° C. Preferably, the process comprises suspending crystals of form I or a mixture of crystals form I and VII in an organic solvent, such as n-heptane, diethyl ether, or n-hexane, at a temperature of from +30° to +80° C., more preferably about 55° C. The resultant suspension is then stirred at this temperature for about from 24 to 120 hours, more preferably for about 48 hours."}}}
{"smiles": "C=CCN1C[C@H](C(=O)N(CCCN(C)C)C(=O)NCC)C[C@@H]2c3cccc4[nH]cc(c34)C[C@H]21", "note": "[Form VII, 1((6-allylergolin-8beta-yl)-carbonyl)-1-(3-dimethylaminopropyl)-3-ethylurea]", "values": [{"measurement": "inhibitory effect with regard prolactine", "setting": "[1]", "result": "significant inhibitory effect"}, {"measurement": "stability with respect to form I", "setting": "[2]; compared with form I", "result": "greater stability"}, {"measurement": "thermodynamic stability of the polymorph", "setting": "[2]; range of temperature between +30° and +80° C.", "result": "thermodynamically most stable polymorph"}]}
